Data: PubChem BioAssay (NCI)
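48-hour exposure; five concentrations; linearly interpolated endpoints. At the GI50, growth is halved. TGI denotes the concentration required for complete inhibition of growth.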

What was measured:
Experiment in all cases: NCI-60 cell line screen, 48 h
OVCAR-4 ovarian = tested on: OVCAR-4 ovarian
HT29 colon = tested on: HT29 colon
BT-549 breast = tested on: BT-549 breast
A549 NSCLC = tested on: A549 NSCLC
COLO 205 colon = tested on: COLO 205 colon
MDA-MB-468 breast = tested on: MDA-MB-468 breast
U251 CNS = tested on: U251 CNS
IGROV1 ovarian = tested on: IGROV1 ovarian
KM12 colon = tested on: KM12 colon
MCF7 breast = tested on: MCF7 breast
SK-OV-3 ovarian = tested on: SK-OV-3 ovarian
DU-145 prostate = tested on: DU-145 prostate
HL-60(TB) leukemia = tested on: HL-60(TB) leukemia
M14 melanoma = tested on: M14 melanoma
NCI-H522 lung = tested on: NCI-H522 lung
SK-MEL-5 melanoma = tested on: SK-MEL-5 melanoma
SNB-19 CNS = tested on: SNB-19 CNS
RXF 393 renal = tested on: RXF 393 renal
OVCAR-8 ovarian = tested on: OVCAR-8 ovarian
RPMI-8226 leukemia = tested on: RPMI-8226 leukemia
MOLT-4 leukemia = tested on: MOLT-4 leukemia
SK-MEL-2 melanoma = tested on: SK-MEL-2 melanoma
HCC-2998 colon = tested on: HCC-2998 colon
HCT-116 colon = tested on: HCT-116 colon
LOX IMVI melanoma = tested on: LOX IMVI melanoma
MALME-3M melanoma = tested on: MALME-3M melanoma
HCT-15 colon = tested on: HCT-15 colon
786-0 renal = tested on: 786-0 renal

## O=C(N/N=C/c1ccc(B(O)O)o1)c1[nH]c2ccc(Br)cc2c1-c1ccccc1
OVCAR-4 ovarian
  GI50: 47 µM
  TGI: > 100 µM
HT29 colon
  GI50: 20.6 µM
  TGI: 50.9 µM
BT-549 breast
  GI50: 12 µM
  TGI: 33.3 µM
A549 NSCLC
  GI50: 27.1 µM
  TGI: > 100 µM
COLO 205 colon
  GI50: 19.8 µM
  TGI: 46.6 µM
MDA-MB-468 breast
  GI50: 19.3 µM
  TGI: 57.2 µM
U251 CNS
  GI50: 16.5 µM
  TGI: 44.4 µM
IGROV1 ovarian
  GI50: 25.7 µM
  TGI: > 100 µM
KM12 colon
  GI50: 19.2 µM
  TGI: > 100 µM
MCF7 breast
  GI50: 24.7 µM
  TGI: > 100 µM
SK-OV-3 ovarian
  GI50: 21.8 µM
  TGI: 67.3 µM
DU-145 prostate
  GI50: 32.3 µM
  TGI: > 100 µM
HL-60(TB) leukemia
  GI50: 13 µM
  TGI: 37.1 µM
M14 melanoma
  GI50: 19 µM
  TGI: > 100 µM
NCI-H522 lung
  GI50: 2.94 µM
  TGI: 13.5 µM
SK-MEL-5 melanoma
  GI50: 14.7 µM
  TGI: 35.5 µM
SNB-19 CNS
  GI50: 21.1 µM
  TGI: 89.7 µM
RXF 393 renal
  GI50: 5.38 µM
  TGI: 24.1 µM
OVCAR-8 ovarian
  GI50: 17.7 µM
  TGI: 41.6 µM
RPMI-8226 leukemia
  GI50: 29.5 µM
  TGI: > 100 µM
MOLT-4 leukemia
  GI50: 20.3 µM
  TGI: 73.3 µM
SK-MEL-2 melanoma
  GI50: 13.5 µM
  TGI: 43.5 µM
HCC-2998 colon
  GI50: 25.4 µM
  TGI: 90.2 µM
HCT-116 colon
  GI50: 16.9 µM
  TGI: > 100 µM
LOX IMVI melanoma
  GI50: 18.1 µM
  TGI: > 100 µM
MALME-3M melanoma
  GI50: 26.9 µM
  TGI: > 100 µM
HCT-15 colon
  GI50: 22.6 µM
  TGI: > 100 µM
786-0 renal
  GI50: 17.9 µM
  TGI: 54.6 µM
